# Data from patent US4276890A, “Tobacco smoking inhibitor” (priority 1979, dated 1981).
# Several values for one entry are separate records, joined by “and”; a condition that tells them apart may be missing. Equal values may be shown once. Entries after “also recorded” stand apart in the source; their conditions may differ.
# Key:
# [1] = test system: tobacco consumption of habitual smokers; assay: General observations of treatment on tobacco consumption and subjective effects; assay type: in vivo, human (test subjects
# Description: In a preferred embodiment, finely divided ethyl maltol is distributed in a chewing gum base, which when chewed by the subject, results in a gradual release of ethyl maltol into the oral cavity. When administered in appropriate amounts over a period of several days, there results a gradual decrease in the number of cigarettes smoked and the length of time they are smoked. […] Reductions in the frequency and quantity of smoking have been observed in test subjects who were unaware that their smoking behavior was monitored. […] Subjectively, test subjects experience a reduced desired to smoke, tend to neglect the opportunities to light up a cigarette and tend to leave cigarettes unsmoked in the ashtray after a few puffs. The effect is sufficiently subtle that a smoker is sometimes unaware that their tobacco consumption rate was decreased until such point as the lowered consumption rate becomes obvious. For smokers sincerely desiring to reduce or eliminate their smoking, the effect of the treatment is most gratifying. However, for smokers who are not psychologically committed to giving up smoking, the effects may be alarming. It is of course, possible to override the effects of the treatment by conscious effort to smoke at the pre-treatment rate.
# (§1) Smoking behavior is complex and includes cigarette, pipe and cigar smoking. Both from the standpoint of habituation and of health hazard, cigarette smoking is considered to be the most serious. It is contemplated that the treatment method described herein will be effective to inhibit all forms of smoking behavior and combinations thereof, involving the consumption of tobacco. For convenience, the ensuing discussion focuses on cigarette smoking, as exemplary of smoking behavior in general. Tobacco consumption is a function the number of cigarettes smoked and the proportion of each cigarette smoked. Reduction of consumption is measured by comparison with a smoker's pretreatment consumption rate. All data used herein are expressed as percent reduction, i.e., the differential between pretreatment and current smoking consumption rate divided by the pretreatment rate, times 100. All rates are calculated to take into account both the number of cigarettes smoked and the proportion of each smoked.
# Duration of treatment may be as little as ten days, preferably 20 to 30 days. As might be expected with a complex behavior such as smoking, where psychological and social factors play a major role in addition to individual variations in nicotine susceptibility and responsiveness to gamma pyrone, the rate of smoking reduction during treatment is highly variable. Typically, a gradual reduction to about 50% to the pretreatment rate is observed over the first four to six days. Frequently, little or no reduction is observed for the first two days, although occasionally a dramatic reduction is observed almost immediately. In the ensuing seven to ten days, further reductions, typically 70 to 100%, are observed. Reduction below the 50% level in the first 3-5 days is sometimes accompanied by the physiological (but not psychological) symptoms of nicotine withdrawl, such as vertigo, alimentary distress, diuresis, scotoma and disorientation. Such symptoms have never been observed in non-smoking control subjects using the same gamma pyrone dosages. […] The entire course of treatment is therefore extended somewhat, preferably to about 20 to 30 days total. […]
# [2] = Volatility and storage stability; assay type: physicochemical
# Method: The troches were made essentially by conventional candy making techniques. The polysaccharide and starch were first dry blended to substantial uniformity. About 3-4% by weight of water was added to the dry powder to form a thick paste. This paste was then heated to produce a uniform viscous melt. Maltol or ethyl maltol were added to this melt as saturated solutions in boiling water. The water solubility of the gamma pyrones is somewhat limited. For example, one gram of ethyl maltol requires 6 ml of water at 100° C. to dissolve completely. Since the water content of the mixture must be kept low, the amount of ethyl maltol which can be incorporated is about 3-4%, and preferably about 1% by weight of the troche. […] Alternatively, the entire process can be carried out in a suitable pressure apparatus.
# A refined, bland chewing gum base, obtained from Adams Sour Apple gum, (Warner-Lambert, Inc., Morris Plains, N.J.) was heated to 45° C. in a 100 gram batch. Ethyl maltol, 300 to 400 mesh, 6.66 grams, was added to the chewing gum base with thorough mixing to provide an even distribution of particles throughout the mass. The mass was then rolled into individual 3 gram sticks and allowed to cool. Alternatively, the mass was rolled as a single thin rectangular slab, allowed to cool, then cut into 3 gram sticks. […] Each 3 gram stick contains 200 mg of ethyl maltol.
# [3] = test system: convulsions produced by pentylenetetrazole or strychnine; settings: 300 to 500 mg per kg; cited from earlier work
# [4] = test system: cigarette consumption of smokers; assay: Multi-day dose course in individual smokers (Example 4, Table 1): tobacco consumption; assay type: in vivo, human (volunteer smokers)
# Description: as §1
# Extensive tests were made of individual smokers of varied age, smoking history, and sex in a course of treatment extending over several days. All smokers tested in this experiment were initially naive as to the purpose of the test or the expected effect. The subjects volunteered for the tests after being told that the material is safe according to FDA food additive standards and that they were to report all observed effects. So far as can be ascertained none of the subjects deduced the true purpose of the test until the effects were made obvious by substantial involuntary reduction in their smoking activities. Subjects were interviewed before the dosage course to insure that they were in general good health. Interviews were also conducted during and after the dosage course, at least every third day to ascertain what physiological or psychological effects were experienced. No side effects were noted during or after the treatment cycle.
# Several individuals from the original test series volunteered for additional testing. In all such instances, a treatment free period of three weeks to three months was interposed between tests.
# Subjects are identified by number. The original, naive tests are identified by the letter "a" following the subjects' number. Subsequent test series are identified sequentially by "b" and "c", where appropriate.
# All subjects except nos. 10 and 11 received ethyl maltol in a chewing gum with instructions to chew for at least 10 minutes, and preferably 15 minutes. Subjects 10 and 11 received ethyl maltol in tablet form, rather than by sustained release in the mouth.
# [5] = per day; cited from earlier work
# [6] = chewing gum, 600 mg/day, 1 day, subject 8b
# [7] = chewing gum, 800 mg/day, course: 1a 16 days, 2b 20, 7b 20, 8a 1, 9a 5 days
# [8] = chewing gum, 900 mg/day, 12 days, subject 2a
# [9] = chewing gum, 1200 mg/day, 8 days, subject 4a
# [10] = chewing gum, 1500 mg/day, 25 days, subject 3a
# [11] = tablets, 1000 mg/day, 15 days, subject 11a
# [12] = tablets, 1200 mg/day, 10 days, subject 10a
structure (smiles),measurement,setting,value
"CCc1occc(=O)c1O [ethyl maltol, 3-hydroxy-2-ethyl-4-pyrone]",tobacco consumption of habitual smokers,[1]; appropriate dosage levels and rates,significantly reduces the tobacco consumption of habitual smokers
same,onset of reduced cigarette consumption,[1]; day of treatment,about the second or third day of treatment
same,symptoms of nicotine withdrawal,[1]; treatment over several days,does not appear to be accompanied by the typical symptoms of nicotine withdrawal
same,volatility,[2]; especially at elevated temperatures,"volatile, especially at elevated temperatures"
same,storage loss,"[2]; unwrapped gum, room temperature",storage loss of ethyl maltol due to sublimation at room temperature
same,convulsions produced by pentylenetetrazole or strychnine,[3],inhibited convulsions
same,Cigarette Consumption per day at end (in words),"[4]; chewing gum, 600 mg/day, 1 day, subject 6a, for following 2 wks.",Reduced to 1/2 pack for following
same,Change in Smoking Pattern per cig.,[4]; [6],Less than 1/2
same,Cigarette Consumption per day at end,[4]; [6],7 cigarettes per day
same,Percentage Reduction,[4]; [6],40-50%
same,Change in Smoking Pattern per cig.,"[4]; chewing gum, 700 mg/day, course: 2c 30 days, 3b 8, 5a 14, 7c 40 days",Approx. 1/2; also recorded: Varied; also recorded: Less than 3/4; also recorded: Reduced to 2-3 puffs
same,Change in Smoking Pattern per cig.,[4]; [7],Approx. 1/2; also recorded: Less than 1/2; also recorded: Less than 3/4; also recorded: Reduced to light-up
same,Percentage Reduction,[4]; [7],70-80% and 41-68% and 75% and 75-80% and 70%
same,Cigarette Consumption per day at end,[4]; [8],0 cigarettes per day
same,Percentage Reduction,[4]; [8],100%
same,Change in Smoking Pattern per cig.,"[4]; chewing gum, 1000 mg/day, course: 4b 4 days, 7a 7, 12a 8 days",Less than 1/2; also recorded: Reduced to 3-4 puffs
same,Cigarette Consumption per day at end,[4]; [9],0 cigarettes per day
same,Percentage Reduction,[4]; [9],100%
same,Cigarette Consumption per day at end,[4]; [10],0 cigarettes per day
same,Percentage Reduction,[4]; [10],100%
same,Smoking during dose course (in words),"[4]; non-habit smoker 13a, chewing gum, 1000 mg/day, 2 days",Not able to finish cigarette
same,effectiveness of systemic administration,"[4]; tablet form, subjects 10 and 11, retention in the mouth not ruled out",partially effective
same,Change in Smoking Pattern per cig.,[4]; [11],Less than 3/4
same,Cigarette Consumption per day at end,[4]; [11],17-18 cigarettes per day
same,Percentage Reduction,[4]; [11],40-43%
same,Change in Smoking Pattern per cig.,[4]; [12],Reduced to 3-4 puffs
same,Cigarette Consumption per day at end,[4]; [12],10-12 cigarettes per day
same,Percentage Reduction,[4]; [12],70-75%
same,safe average daily intake,[5],2 mg per kg
